Data: patent US10875861B1, “Therapeutic compounds” (Rutgers, The State University of New Jersey, priority 2017, dated 2020)

Tested on: BMI-1 protein
Test: Inhibition of BMI-1 protein levels in U87 cells (Western blotting)
Format: cell-based
Details: U87 cells, 72 hours, different concentrations
Experimental: U87 cells were treated with DMSO or different concentrations of compound B1 for 72 hours. Cells were lysed in Cell Lysis Buffer (Cell Signaling, #9803) supplemented with Protease Inhibitor Cocktail (Sigma, #P8340), sonicated briefly while on ice and spun down for 30 minutes at 4° C., after which the supernatant was collected. For each sample, 2 uL of lysate was mixed well into 198 uL de-ionized water. Next, 10 uL of this diluted sample was added to a well in a 96 well plate in quadruplets and mixed with Protein Assay Dye Reagent Concentrate (Bio-Rad, #500-0006) (which was diluted 1:5 with water). BSA standards of 25 ng, 50 ng, 100 ng, 200 ng and 250 ng were also used to the plate and mixed with the reagent. The plate was read in a plate reader at 600 nm and samples were calibrated to the standards to determine the concentration of protein. Using the NuPAGE system (Invitrogen), 25 ug of protein was mixed with NuPAGE LDS 4× Sample Buffer (#NP0007), NuPAGE 10× Reducing Agent (#NP0004) and water, mixed well and heated at 96° C. for 15 minutes to denature the protein. […] Protein signals were detected using ECL Western Blotting Substrate (Pierce, #32106) and filmed.
U87 cells were treated with DMSO or different concentrations of the inhibitors for 72 hours. […] The plate was read in a plate reader at 600 nm and samples were calibrated to the standards to determine the concentration of protein. […]

COc1ccc(Nc2nc(-c3nc4ncccn4c3C)cs2)cc1 [Example B1, N-(4-methoxyphenyl)-4-(3-methylimidazo[1,2-a]pyrimidin-2-yl)thiazol-2-amine]
BMI-1 protein levels in U87 cells (Test C): inhibition of BMI-1 protein levels
